Assay results: patent US20260070927A1, “INDAZOLE MACROCYCLES FOR THE TREATMENT OF AUTOIMMUNE DISEASE” (Hoffmann-La Roche Inc., priority 2022, published 2026)
pIC50: −log10 of the molar value.

Legend:
[1] = molecular target: human stimulator of interferon genes (STING) (139-379) (Homo sapiens (Human), UniProt Q86WV6); test: Microliter plate-based TR-FRET competition-binding assay for binders of STING; details: Alexa488 probe, read-out: FRET_IC50
Experimental: This is the competition-binding assay to test the compounds' potency to the C-terminal Domain (CTD) and ligand-binding domain of human stimulator of interferon genes (STING). STING (139-379, Q86WV6, http://www.uniprot.org/uniprot) recombinant protein (in 20 mM Tris, 150 mM NaCl, pH 8.0, and expression in Escherichia coli (E. coli) BL21 (DE3)) with a C-terminal flag-tag was employed for the assay. When Alexa-488 labeled active site probe (refer to patent WO2017/175156 A1) bounds to STING (139-379), it accepts the 485 nm emission from Tb-M2-Flag-STING and results in an increase in fluorescence at 520 nm. Compounds that compete for the probe-binding site will reduce 520 nm signal. The assay was run in proxiplate-384 plus (PerkinElmer, cat: 60150300) containing of 2.5 nM STING, 2.5 nM M2-Tb (Cisbio, 61FG2TLA, Lot: 17 A) and 250 nM Alexa488 probe. Plates were centrifuged for 1 min at 1000 rpm, incubated for 30 min at room temperature, and then measured the dual fluorescence emission at 520 nm/485 nM following 320 nm laser excitation on an Envision plate reader (Perkin-Elmer). The compounds' effect on the STING binding is detected by measuring ratiometric fluorescence from time-resolved FRET. The percentage of inhibition of at each compound concentration is calculated on the basis of their changes of TR-FRET efficiency relative to the change of TR-FRET caused by positive control 2′3′cGAMP (Sigma, cat: SML1229).

STING (IFN-β in hPBMC) = test: hPBMC cytokine functional assay (IFN-β decrease after Baculovirus stimulation); type: cell-based; details: Homo sapiens, Baculovirus MOI 40, 24 hours, read-out: hPBMC_IC50
Experimental: The inhibition of STING by compounds could be measured by the decrease of IFN-β in hPBMC, which is stimulated by a double stranded DNA virus Baculoviurs (Purchased from Genescript, pCMV-Dest Vector virus generation P2 BV stock virus, Sf-900 II medium with 5% FBS, Lot C9835DK230-2/P4DL001). Frozen hPBMC cells (purchased from Stemcell Technologies, cat number is 70025, Lot 191070803C) were thawed at 37° C. water bath, then cells were re-suspended in 50 ml tube using 20 ml Cell culture medium, and then centrifuged for 5 min at 2000 rpm before the supernatant was removed carefully. The cells were re-suspended in culture medium (RPMI-1640 with 1.5 g/L NaHCO3, 4.5 g/L glucose, 10 mM HEPES and 1 mM Na-pyruvate, 10% HI-FBS); 65 μL of the cell suspension was dispensed into 384 well plate (70K cells/well) by Multidrop Combi with at least 3 hours incubation at 37° C., 5% CO2 cell incubator.
Then 4 μL of compound solution per well (final 0.5% DMSO) was transferred by Agilent Bravo followed by infection with 11 μL of Baculovirus at a final MOI of 40. The level of IFN-β secreted in the supernatant of hPBMC was determined after 24 hours of incubation at 37° C. cell incubator by human IFN-β HTRF assay (Cisbio, cat: 62HIFNBPEH) following the manufacture's instruction. CellTiter-Glo kit (Promega, cat: G7573) was applied for the cell viability evaluation using Envision.

Chain of human stimulator of interferon genes (STING) (139-379) (Q86WV6 139-379): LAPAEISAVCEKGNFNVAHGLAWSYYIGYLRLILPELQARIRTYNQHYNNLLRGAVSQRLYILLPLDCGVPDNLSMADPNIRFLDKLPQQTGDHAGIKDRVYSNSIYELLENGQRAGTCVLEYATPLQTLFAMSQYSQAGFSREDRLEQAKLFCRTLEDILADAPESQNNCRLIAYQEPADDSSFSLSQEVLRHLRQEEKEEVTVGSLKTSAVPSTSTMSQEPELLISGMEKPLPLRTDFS

## COc1cc2nc(c1)-c1cccc3nn(C)c(c13)CCCN(C)C(=O)[C@@H]1C[C@@H](CN1c1ncnc3c1cnn3-c1ccc(F)cc1F)N2 [Example 13, (8S,11S)-10-[1-(2,4-difluorophenyl)pyrazolo[3,4-d]pyrimidin-4-yl]-4-methoxy-13,18-dimethyl-7,10,13,18,19,26-hexazapentacyclo[15.6.1.1^2,6.1^8,11.0^20,24]hexacosa-1(23),2,4,6(26),17(24),19,21-heptaen-12-one]
[1]
  pIC50: 8.33
STING (IFN-β in hPBMC)
  pIC50: 6.65

## COc1cc2nc(c1)-c1cccc3nn(C)c(c13)CCCN(C)C(=O)[C@@H]1C[C@@H](CN1c1ncnc3c1cnn3-c1ccc(F)cc1OC)N2 [Example 14, (8S,11S)-10-[1-(4-fluoro-2-methoxy-phenyl)pyrazolo[3,4-d]pyrimidin-4-yl]-4-methoxy-13,18-dimethyl-7,10,13,18,19,26-hexazapentacyclo[15.6.1.1^2,6.1^8,11.0^20,24]hexacosa-1(23),2,4,6(26),17(24),19,21-heptaen-12-one]
[1]
  pIC50: 8.32
STING (IFN-β in hPBMC)
  pIC50: 6.59

## Cn1nc2cccc3c2c1CCCN(CC1CC1)C(=O)[C@@H]1C[C@@H](CN1c1ncnc2c1cnn2-c1ccc(F)cc1F)Oc1cccc-3c1 [Example 15, (8S,11S)-13-(cyclopropylmethyl)-10-[1-(2,4-difluorophenyl)pyrazolo[3,4-d]pyrimidin-4-yl]-18-methyl-7-oxa-10,13,18,19-tetrazapentacyclo[15.6.1.1^2,6.1^8,11.0^20,24]hexacosa-1(23),2(26),3,5,17(24),19,21-heptaen-12-one]
[1]
  pIC50: 8.80
STING (IFN-β in hPBMC)
  pIC50: 6.85

## C=CCN1CCCc2c3c(cccc3nn2C)-c2cccc(c2)O[C@H]2C[C@@H](C1=O)N(c1ncnc3c1cnn3-c1ccc(F)cc1F)C2 [Example 20, (8S,11S)-13-allyl-10-[1-(2,4-difluorophenyl)pyrazolo[3,4-d]pyrimidin-4-yl]-18-methyl-7-oxa-10,13,18,19-tetrazapentacyclo[15.6.1.1^2,6.1^8,11.0^20,24]hexacosa-1(23),2(26),3,5,17(24),19,21-heptaen-12-one]
[1]
  pIC50: 8.72
STING (IFN-β in hPBMC)
  pIC50: 6.46

## COCCN1CCCc2c3c(cccc3nn2C)-c2cccc(c2)O[C@H]2C[C@@H](C1=O)N(c1ncnc3c1cnn3-c1ccc(F)cc1F)C2 [Example 21, (8S,11S)-10-[1-(2,4-difluorophenyl)pyrazolo[3,4-d]pyrimidin-4-yl]-13-(2-methoxyethyl)-18-methyl-7-oxa-10,13,18,19-tetrazapentacyclo[15.6.1.1^2,6.1^8,11.0^20,24]hexacosa-1(23),2(26),3,5,17(24),19,21-heptaen-12-one]
[1]
  pIC50: 8.70
STING (IFN-β in hPBMC)
  pIC50: 6.42

## Cn1nc2cccc3c2c1CCCN(CCN1CCOCC1)C(=O)[C@@H]1C[C@@H](CN1c1ncnc2c1cnn2-c1ccc(F)cc1F)Oc1cccc-3c1 [Example 23, (8S,11S)-10-[1-(2,4-difluorophenyl)pyrazolo[3,4-d]pyrimidin-4-yl]-18-methyl-13-(2-morpholinoethyl)-7-oxa-10,13,18,19-tetrazapentacyclo[15.6.1.1^2,6.1^8,11.0^20,24]hexacosa-1(23),2(26),3,5,17(24),19,21-heptaen-12-one]
[1]
  pIC50: 8.80
STING (IFN-β in hPBMC)
  pIC50: 6.55

## Cn1nc2cc(F)cc3c2c1CCCN(CCN1CCOCC1)C(=O)[C@@H]1C[C@@H](CN1c1ncnc2c1cnn2-c1ccc(F)cc1F)Oc1cccc-3c1 [Example 25, (8S,11S)-10-[1-(2,4-difluorophenyl)pyrazolo[3,4-d]pyrimidin-4-yl]-22-fluoro-18-methyl-13-(2-morpholinoethyl)-7-oxa-10,13,18,19-tetrazapentacyclo[15.6.1.1^2,6.1^8,11.0^20,24]hexacosa-1(23),2(26),3,5,17(24),19,21-heptaen-12-one]
[1]
  pIC50: 7.74
STING (IFN-β in hPBMC)
  pIC50: 6.26

## Cn1nc2cccc3c2c1CCCN(CCCO)C(=O)[C@@H]1C[C@@H](CN1c1ncnc2c1cnn2-c1ccc(F)cc1F)Oc1cccc-3c1 [Example 26, (8S,11S)-10-[1-(2,4-difluorophenyl)pyrazolo[3,4-d]pyrimidin-4-yl]-13-(3-hydroxypropyl)-18-methyl-7-oxa-10,13,18,19-tetrazapentacyclo[15.6.1.1^2,6.1^8,11.0^20,24]hexacosa-1(23),2(26),3,5,17(24),19,21-heptaen-12-one]
[1]
  pIC50: 8.66
STING (IFN-β in hPBMC)
  pIC50: 6.99

## COCCCN1CCCc2c3c(cccc3nn2C)-c2cccc(c2)O[C@H]2C[C@@H](C1=O)N(c1ncnc3c1cnn3-c1ccc(F)cc1F)C2 [Example 27, (8S,11S)-10-[1-(2,4-difluorophenyl)pyrazolo[3,4-d]pyrimidin-4-yl]-13-(3-methoxypropyl)-18-methyl-7-oxa-10,13,18,19-tetrazapentacyclo[15.6.1.1^2,6.1^8,11.0^20,24]hexacosa-1(23),2(26),3,5,17(24),19,21-heptaen-12-one]
[1]
  pIC50: 7.85
STING (IFN-β in hPBMC)
  pIC50: 7.64

## Cn1nc2cccc3c2c1CCCN(CCOCc1ccncc1)C(=O)[C@@H]1C[C@@H](CN1c1ncnc2c1cnn2-c1ccc(F)cc1F)Oc1cccc-3c1 [Example 28, (8S,11S)-10-[1-(2,4-difluorophenyl)pyrazolo[3,4-d]pyrimidin-4-yl]-18-methyl-13-[2-(4-pyridylmethoxy)ethyl]-7-oxa-10,13,18,19-tetrazapentacyclo[15.6.1.1^2,6.1^8,11.0^20,24]hexacosa-1(23),2(26),3,5,17(24),19,21-heptaen-12-one]
[1]
  pIC50: 9.70
STING (IFN-β in hPBMC)
  pIC50: 6.74

## Cn1nc2cccc3c2c1CCCN(CCCc1ccccc1)C(=O)[C@@H]1C[C@@H](CN1c1ncnc2c1cnn2-c1ccc(F)cc1F)Oc1cccc-3c1 [Example 29, (8S,11S)-10-[1-(2,4-difluorophenyl)pyrazolo[3,4-d]pyrimidin-4-yl]-18-methyl-13-(3-phenylpropyl)-7-oxa-10,13,18,19-tetrazapentacyclo[15.6.1.1^2,6.1^8,11.0^20,24]hexacosa-1(23),2(26),3,5,17(24),19,21-heptaen-12-one]
[1]
  pIC50: 8.92
STING (IFN-β in hPBMC)
  pIC50: 7.51

## Cn1nc2cccc3c2c1CCCN(CCCN1CCOCC1)C(=O)[C@@H]1C[C@@H](CN1c1ncnc2c1cnn2-c1ccc(F)cc1F)Oc1cccc-3c1 [Example 30, (8S,11S)-10-[1-(2,4-difluorophenyl)pyrazolo[3,4-d]pyrimidin-4-yl]-18-methyl-13-(3-morpholinopropyl)-7-oxa-10,13,18,19-tetrazapentacyclo[15.6.1.1^2,6.1^8,11.0^20,24]hexacosa-1(23),2(26),3,5,17(24),19,21-heptaen-12-one]
[1]
  pIC50: 8.70
STING (IFN-β in hPBMC)
  pIC50: 6.76

## CC(=O)N1CCN(CCCN2CCCc3c4c(cccc4nn3C)-c3cccc(c3)O[C@H]3C[C@@H](C2=O)N(c2ncnc4c2cnn4-c2ccc(F)cc2F)C3)CC1 [Example 33, (8S,11S)-13-[3-(4-acetylpiperazin-1-yl)propyl]-10-[1-(2,4-difluorophenyl)pyrazolo[3,4-d]pyrimidin-4-yl]-18-methyl-7-oxa-10,13,18,19-tetrazapentacyclo[15.6.1.1^2,6.1^8,11.0^20,24]hexacosa-1(23),2(26),3,5,17(24),19,21-heptaen-12-one]
[1]
  pIC50: 8.77
STING (IFN-β in hPBMC)
  pIC50: 6.09
